Experimental data reported in US8871772B2, “Therapeutic methods and compounds” (Ampio Pharmaceuticals, Inc., priority 2008, dated 2014).

What was measured:
Type in all cases: cell-based
Akt = Akt phosphorylation in AU565 breast cancer cells, CASE ELISA (S473); settings: Homo sapiens, IGF-1 stimulated; for inhibition at 50 µM: AU565, 50 μM
Method: Assays were performed to determine the effect of Cpd. 5 (synthesis described in Example 1) on phosphorylation of Akt in the AU565 breast cancer cell line. Akt (or protein kinase B, PKB) is a serine/threonine kinase that promotes cellular survival. Akt is activated in response to many different growth factors, including IGF-1, EGF, bFGF, insulin, interleukin-3 (IL-3), IL-6, heregulin and VEGF. Akt has three isoforms, and activation of all three isoforms is similar in that phosphorylation of two sites is necessary for full activity. Once activated, Akt exerts anti-apoptotic effects through phosphorylation of substrates that directly or indirectly regulate apoptosis. Activation of the phosphatidylinositol 3 kinase (PI3K)/Akt signaling pathway contributes to tumorigenesis in many types of tissues, including breast, ovarian, brain, prostate and lymph tissues.
AU565 cells were grown in 75 cm^2 flasks using Iscove's modified Dulbecco's medium (IMDM; obtained from Lonza) supplemented with 10% fetal bovine serum (FBS, HyClone) and 1% penicillin/streptomycin solution (Lonza). Cells were removed from the flasks using trypsin/EDTA (Lonza) and counted using trypan blue to establish cell counts. […]
Following this incubation, 100 μl of serum-free IMDM containing either 0 or 400 ng/ml insulin-like growth factor-1 (IGF-1) (obtained from Sigma), an Akt phosphorylation promoter, were added, and the plates incubated at 37° C., 5% CO2, for 1 more hour. At the end of this time, the cells were fixed immediately with 4% formaldehyde, refrigerated, and the extent of phosphorylation of Akt determined using the Akt Cellular Activation of Signaling ELISA (CASE™ Kit for AKT […]; SABiosciences, Frederick, Md.) following the manufacturer's protocols. The CASE™ Kit for AKT S473 quantifies the amount of activated (phosphorylated) Akt protein relative to total Akt protein in parallel assays using a conventional ELISA format with colorimetric detection. […] Both primary antibodies are detected using a horseradish peroxidase-labeled secondary antibody. […]
The results were calculated as follows. […]

WM-266-4 cells = test: Proliferation of WM-266-4 cells (separate experiment); settings: concentration not given
Source text: As shown there, Cpd. […] It should also be noted that, in a separate experiment, Cpd.

[1] = test system: STTG grade 4 astrocytoma cell line; test: Proliferation of STTG cancer cells, Promega cell titer assay; settings: 96 hours, negative number = increase
Method: Assays were performed to determine the effect of Cpd. 5 (synthesis described in Example 1) on proliferation of two cancer cell lines. These two cell lines were STTG grade 4 astrocytoma cell line and AU565 breast cancer cell line. Both cell lines were obtained from American Type Culture Collection, Rockville, Md. (ATCC).
To perform the assays, a 50 mM stock solution of Cpd. 5 was prepared in DMSO and frozen at −80° C. Aliquots of the stock solution were removed and 100 μM dilutions were made in Iscove's modified Dulbecco's medium (IMDM; obtained from ATCC) supplemented with 10% fetal bovine serum (FBS) and penicillin/streptomycin solution. Controls containing equivalent amounts of DMSO to the 100 μM solution were mixed for comparative purposes. 100 μl of the resulting solutions were then added to 96 well culture plates in triplicate and placed in a 37° C. incubator with 5% CO2 to warm.
At this point, cells were removed from passage flasks using trypsin and counted using trypan blue to establish cell counts/ml and viability. For all experiments, viability of cells was greater than 95%. Solutions of 4,000 cells/100 μl were prepared in the medium from above and 100 μl of the solutions were added to each well of the plates. The plates were placed back in the incubator and incubated with the compounds for 96 hours.
Following incubation, cell proliferation was assayed by adding 20 μl Promega cell titer aqueous one reagent to each well. […] The plates were incubated at 37° C. for an additional 4-18 hours to allow the colorimetric assay to develop, and the OD of each well was determined in a microplate reader using a 530 nm filter. The OD of wells containing cell titer reagent in culture medium with no cells was subtracted from the OD of all experimental readings.
The % decrease of the total cell titer signal was determined using the following formula. […] The p values were calculated versus diluent controls.

| Compound | inhibition at 50 µM (Akt) [%] | inhibition of the proliferation of WM-266-4 cells (WM-266-4 cells) | MEAN % DECREASE of cell titer signal ([1]; 20 μM) [%] | inhibition at 10 µM (Akt; AU565, 10 μM) [%] | MEAN % DECREASE of cell titer signal ([1]; 50 μM) [%] |
| --- | --- | --- | --- | --- | --- |
| O=c1cc(N2CCOCC2)oc2c(-c3ccccc3)cccc12 [LY294002, reference compound] | 92.4 | 105% | −46.72 | – | – |
| COC(=O)C(c1ccc(-c2ccccc2)cc1)C1NC(=O)CNC1=O (stereo not shown) [Cpd. 5, biphenyl-4-yl-(3,6-dioxo-piperazin-2-yl)-acetic acid methyl ester] | 92 | did not inhibit | – | 104 | 78.74 |
